The source of these data is PMC6277434, “Discovery of a potent HMG-CoA reductase degrader that eliminates statin-induced reductase accumulation and lowers cholesterol” (Nature Communications, 2018).

Holding throughout (assay type): in vivo
In data set [1] the test system is C57BL/6J mice fed MFMC diet. Description: Diet-induced hyperlipidemia: serum and liver TC/TG and FPLC lipoprotein profile in mice on MFMC diet. To be noted: for TC levels in liver, mean / TC levels in the serum, mean / TG levels in liver, mean / TG levels in the serum, mean / TC levels in liver, individual mice / TC levels in the serum, individual mice / TG levels in liver, individual mice / TG levels in the serum, individual mice: 60 mg/kg/day (each agent) gavage once daily 6 weeks; for TC levels in liver, individual mice / TC levels in the serum, individual mice / TG levels in liver, individual mice / TG levels in the serum, individual mice: 60 mg/kg/day; for total cholesterol (TC) and triglyceride (TG) levels in both serum and liver / cholesterol contents in VLDL, LDL and HDL (FPLC serum lipoprotein profile): 6 weeks; for total cholesterol (TC) and triglyceride (TG) levels in both serum and liver: in words; for cholesterol contents in VLDL, LDL and HDL (FPLC serum lipoprotein profile): pooled serum. An excerpt: (§1) Male C57BL/6 mice (8-week-old) were obtained from Shanghai Laboratory Animal Company (SLAC) (Shanghai, China). Male Ldlr^−/− mice (8-week-old) were obtained from Nanjing Biomedical Research Institute of Nanjing University (Nanjing, China). Mice had ad libitum access to water and standard chow diet (SLAC) unless mentioned otherwise. Special diets included medium-fat-medium-cholesterol diet (chow diet with10% fat, 0.2% cholesterol and 0.5% sodium cholate, custom made in SLAC), and western diet (20% fat, 1.25% cholesterol, 0.5% sodium cholate, D12109C, Research Diets). Mice were maintained in a pathogen-free environment and kept on a 12-h light/dark schedule. Mice were gavaged as described in figure legends with saline containing 0.5% methyl cellulose and 0.5% Tween-80. All mice were used in accordance with the guidelines approved by the Institutional Animal Care and Use Committee of Wuhan University.
(§2) Mice were anesthetized and blood collection was performed. Serum was prepared from blood by centrifuging at 1500 × g for 10 min. Livers were harvested and homogenized in a 2:1 mixture of chloroform and methanol using Precellys 24 (Bertin). The organic phase was dried under N2 and liver lipids were reconstituted in ethanol. Total cholesterol and triglyceride levels in the serum and liver were determined using Cholesterol Assay Kit and Triglyceride Assay Kit (Shanghai Kehua Bio-engineering, China).
(§3) Serum lipoproteins were separated by FPLC (AKTA, GE Healthcare) using Superdex 75 10/300 GL (GE Healthcare) column. One hundred microliters pooled serum from five mice per group was diluted with 200 μl PBS, and loaded to the column. Fractions were eluted with PBS at a constant rate of 0.2 ml min^–1, and collected with 300 μl per tube. 100 μl fractions were used to quantify the concentration of total cholesterol level with the Amplex Red Cholesterol Assay Kit (Invitrogen). The cholesterol distribution curves of lipoproteins were done with GraphPad Prism 6 software.

A further data set deals with T1, HMGCR (Mus musculus, UniProt Q01237).
T1 construct: from tissue; host or cells: mouse liver (membrane fraction)
T1 sequence (Q01237 1-887): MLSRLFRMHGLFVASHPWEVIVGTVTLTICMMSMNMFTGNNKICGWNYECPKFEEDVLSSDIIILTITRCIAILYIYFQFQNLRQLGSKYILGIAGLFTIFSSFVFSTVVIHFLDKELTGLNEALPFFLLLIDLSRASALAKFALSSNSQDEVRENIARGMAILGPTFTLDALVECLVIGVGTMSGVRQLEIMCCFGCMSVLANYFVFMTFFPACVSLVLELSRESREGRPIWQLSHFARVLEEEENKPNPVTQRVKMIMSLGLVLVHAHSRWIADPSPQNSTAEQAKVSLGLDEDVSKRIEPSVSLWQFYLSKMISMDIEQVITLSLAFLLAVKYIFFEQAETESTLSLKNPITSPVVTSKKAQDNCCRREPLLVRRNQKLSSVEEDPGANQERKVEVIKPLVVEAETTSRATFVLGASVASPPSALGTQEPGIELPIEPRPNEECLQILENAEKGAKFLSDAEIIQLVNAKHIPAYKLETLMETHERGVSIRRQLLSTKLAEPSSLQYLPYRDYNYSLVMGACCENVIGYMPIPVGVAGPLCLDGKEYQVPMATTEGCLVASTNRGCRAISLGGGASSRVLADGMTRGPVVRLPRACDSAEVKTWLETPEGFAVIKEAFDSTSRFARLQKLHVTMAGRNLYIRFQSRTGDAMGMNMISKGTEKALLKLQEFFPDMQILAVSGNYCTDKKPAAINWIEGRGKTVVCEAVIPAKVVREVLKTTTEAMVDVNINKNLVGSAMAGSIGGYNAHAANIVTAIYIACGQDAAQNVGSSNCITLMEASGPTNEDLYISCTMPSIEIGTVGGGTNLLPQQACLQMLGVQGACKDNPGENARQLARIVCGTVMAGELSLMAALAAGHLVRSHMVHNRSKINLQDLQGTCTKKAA
Description: Immunoblotting of hepatic HMGCR protein (liver membrane fractions) of gavaged mice. A general note: In western blotting, separated proteins are transferred to a membrane and probed.

Data set [2] is described as follows: Body weight and food intake of treated mice.
Data set [3] deals with Ldlr−/− mice on a western diet. In words: Atherosclerosis model: Ldlr−/− mice on western diet (Sudan IV aorta lesions, TC/TG, FPLC). The following applies: for atherosclerotic lesions (en face Sudan IV staining of aortas), individual mice / atherosclerotic lesions (en face Sudan IV staining of aortas), mean: 60 mg/kg/day (each agent) gavage once daily 20 weeks; for aorta atherosclerotic lesions compared with vehicle / elevations of serum and liver TC and TG / serum cholesterol levels in VLDL, LDL and HDL (FPLC): 20 weeks; for aorta atherosclerotic lesions compared with vehicle: in words; for elevations of serum and liver TC and TG / serum cholesterol levels in VLDL, LDL and HDL (FPLC): Ldlr−/− mice, WD.
Excerpt: as §1, §2
To examine aorta atherosclerotic lesions, the aortic tree was isolated and fixed with 4% PFA. After removing perivascular adipose tissues, the atherosclerotic lesions were stained with Sudan IV for 10 min and washed with 70% ethanol for 3 min. The aortic tree was pinned to the black wax-filled petri dish containing PBS and imaged under a stereoscopic microscope (Olympus SZX16). The atherosclerotic lesions were quantified with Image J software (NIH)[66].
as §3

Setting [4] is: C57BL/6J mice, MFMC diet, 6 weeks.

Where “and” joins values, the source holds several entries; their conditions need not be identical. Identical values can stand only once.

With `C=CCC(O)(CC=C)CCCC(C)C1CCC2C3C(O)C=C4C(C)(C)C(O)CCC4(C)C3CCC12C` (stereo not drawn) [Cmpd 81], in data set [1], the “TC levels in liver, mean” value was 3.712; the “TC levels in the serum, mean” value stood at 104.81; the “TG levels in liver, mean” value is recorded as 12.3264; the “TG levels in the serum, mean” value was determined as 55.4414. In data set [1], the “TC levels in liver, individual mice” value was 3.732 and 3.964 and 3.655 and 3.864 and 3.346; the “TC levels in the serum, individual mice” value was 111 and 100.379 and 112.009 and 105.661 and 95; the “TG levels in liver, individual mice” value was 12.9147 and 9.311 and 13.437 and 16.1354 and 9.834; the “TG levels in the serum, individual mice” value is 60.1534 and 51.6317 and 49.6138 and 57.1457 and 58.6623. For the same compound, in data set [1], the “total cholesterol (TC) and triglyceride (TG) levels in both serum and liver” value was “significantly lowered”; the “cholesterol contents in VLDL, LDL and HDL (FPLC serum lipoprotein profile)” value is given as “reduced to similar levels”. The “liver HMGCR protein fold change, mean” value at HMGCR (C57BL/6J mice, chow diet, single agent 60 mg/kg/day gavage 10 days, vehicle = 1) was found to be 0.5524. On HMGCR (Cmpd 81 alone, 60 mg/kg/day, 10 days), the “decrease of liver HMGCR amount” value was 50%. In addition, the “decrease of liver HMGCR relative to lovastatin-treated samples” value on HMGCR (co-administration of Cmpd 81 with lovastatin, each 60 mg/kg/day, 10 days) was over 13 fold. In addition, at HMGCR (mouse, in vivo), the “liver HMGCR protein fold change, mean” value is ~ 2. Moreover, the “body weight and food intake” value in data set [2] (setting [4]) is given as “remained comparable”. Moreover, the “body weight and food intake” value in data set [2] (Ldlr−/− mice, WD, up to 20 weeks) is “did not affect”. In data set [3], the “atherosclerotic lesions (en face Sudan IV staining of aortas), individual mice” value was 32.5011 and 38.2916 and 37.5217 and 25.3733 and 31; the “atherosclerotic lesions (en face Sudan IV staining of aortas), mean” value was 32.9375; the “aorta atherosclerotic lesions compared with vehicle” value is “Significantly less aorta lesions”; the “elevations of serum and liver TC and TG” value was “significant effects on alleviating the elevations”. For the same compound, the “serum cholesterol levels in VLDL, LDL and HDL (FPLC)” value in data set [3] is given as “remarkably reduced”.
On to `CC[C@H](C)C(=O)O[C@H]1C[C@@H](C)C=C2C=C[C@H](C)[C@H](CC[C@@H]3C[C@@H](O)CC(=O)O3)[C@H]21` [Lovastatin, lovastatin], for which, in data set [1], the “TC levels in liver, mean” value worked out at 3.624; the “TC levels in the serum, mean” value is recorded as 103.826; the “TG levels in liver, mean” value stood at 12.4726; the “TG levels in the serum, mean” value is 54.3007. Further, in data set [1], the “TC levels in liver, individual mice” value is 3.3 and 3.747 and 3.618 and 3.824 and 3.629; the “TC levels in the serum, individual mice” value was 108.623 and 105.887 and 100.644 and 93.2834 and 110.692; the “TG levels in liver, individual mice” value is 14.0603 and 12.8492 and 8.103 and 12.4763 and 14.8742; the “TG levels in the serum, individual mice” value is 51.0844 and 48 and 54.6444 and 61.1304 and 56.6444. Besides, in data set [1], the “total cholesterol (TC) and triglyceride (TG) levels in both serum and liver” value was “significantly lowered”; the “cholesterol contents in VLDL, LDL and HDL (FPLC serum lipoprotein profile)” value is “reduced to similar levels”. Moreover, the “hepatic HMGCR protein level, mean” value at HMGCR (C57BL/6J mice, 60 mg/kg/day gavage once daily 7 days, vehicle = 1, 60 mg/kg/day) was 58.4 ± 3.5 fold and 58.3968 fold. For the same compound, the “hepatic HMGCR protein level, mean” value on HMGCR (C57BL/6J mice, 60 mg/kg/day gavage once daily 7 days, vehicle = 1, listed as lovastatin, 60 mg/kg/day) is recorded as 58 fold. Besides, the “hepatic HMGCR protein level, individual mice” value on HMGCR (C57BL/6J mice, 60 mg/kg/day gavage once daily 7 days, vehicle mean = 1, 60 mg/kg/day) is 61.3526 and 59.2668 and 54.571. Further, on HMGCR (C57BL/6J mice, chow diet, single agent 60 mg/kg/day gavage 10 days, vehicle = 1, listed as Lova), the “liver HMGCR protein fold change, mean” value is given as 32.3047. Also, the “liver HMGCR protein fold change, mean” value at HMGCR (C57BL/6J mice, chow diet, single agent 60 mg/kg/day gavage 10 days, vehicle = 1, listed as lovastatin) was “more than 30”. Besides, the “body weight and food intake” value in data set [2] (setting [4]) is “remained comparable”. Further, in data set [3], the “atherosclerotic lesions (en face Sudan IV staining of aortas), individual mice” value is 31.5731 and 31.0783 and 37.0572 and 32.3991 and 25; the “atherosclerotic lesions (en face Sudan IV staining of aortas), mean” value was found to be 31.4215; the “aorta atherosclerotic lesions compared with vehicle” value is “Significantly less aorta lesions”; the “elevations of serum and liver TC and TG” value was “significant effects on alleviating the elevations”. For the same compound, in data set [3], the “serum cholesterol levels in VLDL, LDL and HDL (FPLC)” value is on record as “remarkably reduced”.
